The record followed here is ChEMBL document CHEMBL1201862, “PubChem BioAssay data set” (2004).

The target of test [1] is T1, Short transient receptor potential channel 4 (Mus musculus, UniProt Q9QUQ5).
T1 sequence (Q9QUQ5 whole entry): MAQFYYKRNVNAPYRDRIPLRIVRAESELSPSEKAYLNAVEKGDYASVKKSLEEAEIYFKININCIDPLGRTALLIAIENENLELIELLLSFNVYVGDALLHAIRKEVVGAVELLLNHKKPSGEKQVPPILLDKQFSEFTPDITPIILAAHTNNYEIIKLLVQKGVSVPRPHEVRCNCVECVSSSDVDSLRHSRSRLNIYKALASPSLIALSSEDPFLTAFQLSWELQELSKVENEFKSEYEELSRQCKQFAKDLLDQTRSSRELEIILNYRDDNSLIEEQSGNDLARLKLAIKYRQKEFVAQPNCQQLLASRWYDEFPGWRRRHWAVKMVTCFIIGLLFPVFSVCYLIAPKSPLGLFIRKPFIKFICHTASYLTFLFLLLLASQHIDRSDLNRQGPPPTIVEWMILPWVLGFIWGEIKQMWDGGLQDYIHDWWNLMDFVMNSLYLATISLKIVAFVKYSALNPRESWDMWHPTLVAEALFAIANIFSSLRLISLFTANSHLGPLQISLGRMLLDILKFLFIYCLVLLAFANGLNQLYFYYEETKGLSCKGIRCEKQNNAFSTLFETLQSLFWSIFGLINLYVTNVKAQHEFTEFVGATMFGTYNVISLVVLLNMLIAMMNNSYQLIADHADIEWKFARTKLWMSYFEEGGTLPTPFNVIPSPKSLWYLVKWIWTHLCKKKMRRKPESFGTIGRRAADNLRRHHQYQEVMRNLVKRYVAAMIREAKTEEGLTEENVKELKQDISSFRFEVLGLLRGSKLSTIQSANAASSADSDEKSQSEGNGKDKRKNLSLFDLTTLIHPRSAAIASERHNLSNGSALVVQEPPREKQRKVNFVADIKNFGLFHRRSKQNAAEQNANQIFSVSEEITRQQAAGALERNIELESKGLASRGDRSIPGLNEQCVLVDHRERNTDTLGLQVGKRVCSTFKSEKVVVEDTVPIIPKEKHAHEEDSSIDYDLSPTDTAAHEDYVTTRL
Kind of test: calcium entry via TRPC4 opening agents – cell-based, HEK293 TRPC4/mu-opioid, Fluo-4 calcium, dose response (AID 434937). In kind it is functional.

In test [2] the target is T2, Nuclear receptor subfamily 0 group B member 1 (Homo sapiens, UniProt P51843).
T2 sequence (P51843 whole entry): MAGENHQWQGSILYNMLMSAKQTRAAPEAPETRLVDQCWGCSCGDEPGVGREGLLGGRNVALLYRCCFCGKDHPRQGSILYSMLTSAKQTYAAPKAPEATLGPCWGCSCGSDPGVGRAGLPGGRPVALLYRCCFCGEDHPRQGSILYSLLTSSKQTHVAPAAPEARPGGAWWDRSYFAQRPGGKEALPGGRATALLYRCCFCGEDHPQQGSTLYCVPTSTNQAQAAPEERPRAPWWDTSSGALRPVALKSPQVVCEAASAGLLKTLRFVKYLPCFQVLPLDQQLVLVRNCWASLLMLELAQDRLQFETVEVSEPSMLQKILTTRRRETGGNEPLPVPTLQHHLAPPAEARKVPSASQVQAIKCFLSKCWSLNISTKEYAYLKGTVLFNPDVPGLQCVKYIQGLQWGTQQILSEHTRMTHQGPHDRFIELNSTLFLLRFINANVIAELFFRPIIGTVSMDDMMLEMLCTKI
The test is described as follows: Luminescence-based cell-based high throughput dose response assay for inhibitors of the orphan nuclear receptor subfamily 0, group B, member 1 (DAX1; NR0B1). [Related pubchem assays (depositor defined):AID504766, AID504790]. The format is functional.

For test [3], the system named is HEK293. The test is described as follows: cells. In kind it is functional, cell-based. To be noted: Homo sapiens.
The nature of test [4]: Luminescence Cell-Based Dose Response HTS to Identify Inhibitors of 5'UTR Stem-Loop Driven Prion Protein mRNA Translation in H4 Neuroglioblastoma Cells. [Related pubchem assays: 1827 (Project Summary), 1813 (Primary HTS)]. The format is functional.
Test [5] can be described thus: HEK-293T viability loss after treatment – luminescence, T-cell screen hits, cytotoxicity control for TCR NF-kB inhibitor project, dose response (AID 489026).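 Further: cells exposed to compound about 14 hours before the viability readout.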 In kind it is functional, cell-based.
Test [6] can be described thus: luciferase reporter signal suppression in cells – H4 neuroglioma cells, luminescence, dose response (AID 1990). In kind it is functional, cell-based. A general note: In a reporter assay the amount or activity of a reporter protein is the signal.
In test [7] the target is T3, Zinc finger protein mex-5 (Caenorhabditis elegans, UniProt Q9XUB2).
T3 sequence (Q9XUB2 whole entry): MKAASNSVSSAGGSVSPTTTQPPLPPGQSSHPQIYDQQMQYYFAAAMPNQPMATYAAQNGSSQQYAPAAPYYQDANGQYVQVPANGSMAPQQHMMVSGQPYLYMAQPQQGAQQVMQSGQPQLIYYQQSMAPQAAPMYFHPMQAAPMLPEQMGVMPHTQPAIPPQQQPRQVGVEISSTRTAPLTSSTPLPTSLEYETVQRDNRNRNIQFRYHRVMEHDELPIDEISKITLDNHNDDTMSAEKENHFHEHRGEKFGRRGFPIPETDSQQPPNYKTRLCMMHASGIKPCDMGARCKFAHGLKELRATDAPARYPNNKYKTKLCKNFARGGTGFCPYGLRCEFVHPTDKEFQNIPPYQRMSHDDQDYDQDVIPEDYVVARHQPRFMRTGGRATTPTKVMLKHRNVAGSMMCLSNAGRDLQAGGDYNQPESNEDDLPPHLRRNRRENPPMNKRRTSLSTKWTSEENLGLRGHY
Kind of test: potency of MEX-5 RNA-binding blockers – biochemical, C. elegans, fluorescence polarization, dose response (AID 1960).

The target of test [8] is T4, RNA-binding protein pos-1 (Caenorhabditis elegans, UniProt G5EF15).
T4 sequence (G5EF15 whole entry): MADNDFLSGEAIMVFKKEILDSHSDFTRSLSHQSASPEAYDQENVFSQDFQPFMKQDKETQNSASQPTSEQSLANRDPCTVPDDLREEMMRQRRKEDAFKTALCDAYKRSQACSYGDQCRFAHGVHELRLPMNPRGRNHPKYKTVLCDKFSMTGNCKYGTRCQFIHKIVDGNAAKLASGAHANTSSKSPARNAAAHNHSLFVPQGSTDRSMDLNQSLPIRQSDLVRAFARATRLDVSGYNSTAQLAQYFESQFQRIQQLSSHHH
Kind of test: disruptors of C. elegans POS-1 RNA interaction – biochemical, fluorescence polarization, dose response (AID 1964).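 Further: purified POS-1 fused to maltose binding protein made in E. coli; potency of compounds blocking POS-1 binding to fluorescent RNA.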

The target of test [9] is T5, Endoribonuclease toxin MazF (Escherichia coli K-12, UniProt P0AE70).
T5 sequence (P0AE70 whole entry): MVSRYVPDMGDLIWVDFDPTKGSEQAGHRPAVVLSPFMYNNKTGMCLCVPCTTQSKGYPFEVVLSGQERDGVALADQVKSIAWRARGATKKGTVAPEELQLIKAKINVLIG
The test is described as follows: activation of MazEF endoribonuclease cleavage – biochemical, fluorescence, single-stranded RNA substrate, uHTS hits, dose response (AID 588481). The format is functional.

In test [10] the target is T5, Endoribonuclease toxin MazF. Kind of test: substrate-only fluorescence increase artefacts – biochemical, single-stranded RNase substrate, counter-screen for MazEF activator project, dose response (AID 588502). In kind it is functional.
Test [11] has as its system Vero. The test is described as follows: cells. In kind it is functional. The following applies: Chlorocebus sabaeus.
Test [12] is described as follows: alpha-synuclein stem-loop luciferase translation blockers – H4 neuroglioma cells, luminescence, confirmation (AID 1988). In kind it is functional, cell-based.
For test [13], the system named is BJ. Kind of test: cells. In kind it is functional, cell-based. To be noted: Homo sapiens.
Test [14] relates to BJ. The test is described as follows: BJ-TERT-LT-ST fibroblast viability loss – cell-based, RAS-independent, luminescence, dose response (AID 1935).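 Further: BJ fibroblasts immortalized with TERT plus LT and ST oncogenes.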 To be noted: Homo sapiens. The format is functional.
In test [15] the test system is BJ. Kind of test: BJ-TERT fibroblast viability loss – cell-based, RAS-independent, luminescence, dose response (AID 1933). To be noted: Homo sapiens. In kind it is functional.
Test [16] is described as follows: DRD fibroblast viability loss – cell-based, non-viral oncogenic, luminescence, dose response (AID 1934). To be noted: Homo sapiens. In kind it is functional.

Active and inactive are the calls of the source.

In general, EC50 refers to the concentration giving half of the maximal effect. As to `Cc1csc2c(N3CCN(C(=O)NC(C)(C)C)CC3)ncnc12`, the EC50 in test [1] was 5.31 µM (active).

By IC50 is commonly meant the concentration that inhibits the measured activity by half. Take `CCOc1cnc(C(=O)NNC(=O)C(Br)C(C)C)o1` (centres undefined): the IC50 in [2] and in test [3] was > 67.5 µM (inactive) each time.

Regarding `COc1ccc(-c2[nH]ncc2CN2CCN(Cc3cccs3)CC2)cc1F`, the IC50 in [2] and in test [3] was > 67.5 µM (inactive) throughout.

Turning to `Cc1ccc2[nH]c(SCC(=O)Nc3cc(C(F)(F)F)ccc3N3CCOCC3)nc2c1`, the concentration for a half-maximal effect (EC50) in [4] is 27.9 µM (active); in test [6], 5.2 µM (inconclusive). In addition, in test [5], the IC50 is > 80 µM (inactive).

`COCCN(C(S)=Nc1cccc(C)c1C)C(C)c1ccco1` (centres undefined): the IC50 in [2] and in test [3] was > 67.6 µM (inactive) throughout.

`COc1ccc(-c2cc3nc4n(c(=O)c3s2)CCCCC4)cc1`: the IC50 in [2] and in test [3] was > 67.5 µM (inactive) throughout.

Consider `COc1ccc(/C=C2\CCCC(C(=O)C(F)(F)F)=C2O)cc1`, for which the concentration giving a half-maximal response (EC50) in [7] is 41.4 µM (active); in [8] it was 36 µM (inconclusive); in [9], > 99 µM (inactive); in test [10] it was 33.8 µM (inactive).

On to `COc1ccc(CN2CCC(n3nccc3NC(=O)CCc3ccccc3)CC2)c(C)c1C`, for which the EC50 in test [1] was 2.11 µM (active).

A word on the CC50: it is the concentration at which the toxic effect on the cells reaches its halfway point. Turning to `COc1ccc(/C=C2/CSC/C(=C/c3ccc(OC)c(OC)c3)C2=O)cc1OC`, the 50% cytotoxic concentration (CC50) in [11] is 8.1 µM (active).

In the case of `COc1ccc(C(CNC(=O)c2cccc(S(=O)(=O)NCc3ccccc3)c2)N(C)C)cc1` (centres undefined), the EC50 in test [1] is 0.421 µM (active).

In the case of `O=[N+]([O-])c1ccc(N2CCCNCC2)c2ncccc12`, in [1], the EC50 was 0.008 µM (active).

Turning to `CCN1C(=O)/C(=C2\C=Cc3ccccc3N2CC)OC1=S`, the EC50 in test [9] and in test [10] was > 99 µM (inactive) each time.

As for `COc1ccccc1C(=O)NCc1nnc(SCC(=O)Nc2nccs2)n1C`, the IC50 in test [2] and in test [3] was > 67.6 µM (inactive) in each case.

In the case of `Oc1cc(-c2ccccc2)nc2cc(Cl)ccc12`, the concentration giving a half-maximal response (EC50) in test [4] was 2.36 µM (active); in [12] it was 0.209 µM (active); in test [13], 19.8 µM (active); in test [14], 1.42 µM (inconclusive); in [15] it was 1.04 µM (active); in test [16] it was 0.906 µM (inconclusive). For the same molecule, in test [6], the concentration giving a half-maximal response (EC50) is 2.42 µM (inconclusive). For the same molecule, the IC50 in [5] is > 80 µM (inactive).

As to `CCOc1ccccc1NC(=O)Cn1cnc2c(cnn2-c2ccc(C)c(C)c2)c1=O`, the EC50 in test [9] and in test [10] was > 99 µM (inactive) each time.
